For assay [1], the system named is choroidal neovascularisation. Description: Laser-induced choroidal neovascularisation in vivo. The note with it: C57BL mice; 1 μM; 7 days post injury; injected into the eyes. Details: species or system mouse. As to the method: 6 Week old C57BL mice were anaesthetised on day 0 and 3 laser burns were applied to both eyes. On day 3, 1 μl of 4 μM QM107 (hS2pep), PBS or 4 μM scrambled control were injected into both eyes of the animals. On day 7 the choroidal neovascularisation, in response to the laser lesion, were observed by fluorescein angiography. The area of Choroidal neovascularistaion was then calculated by analysis of images using IMAGEJ.
C57BL mice were treated as described above and it is evident from FIG. 11 that around 30% less choroidal neovascularisation occurs in mice treated with 1 μM of QM107 7 days post injury as compared to animals treated with PBS or the scrambled control. N=10 for each condition and significance was calculated using a students t test.

In assay [2] the test system is murine skin ECs. Description: Endothelial cell invasion through Collagen I (transwell). The format is cell-based. As to conditions: 1 uM, counted after 24 hours, vs scr. As to the method: 50,000 skin ECs were seeded and cells which had passed through the matrix were counted after 24 hours. Cells were stained with Calcein (5 μM) and cells imaged using an Olympus IX81 inverted microscope and a Hamamatuse Orca ER digital camera. Fluorescent cells are shown in (A) and the % migrated cells compared to the untreated control is shown in B. Cell numbers were counted from four independent images and error bars represent the SEM. Significance was calculated using 1 way ANOVA with Tukey's multiple comparison p<0.0001).
Invasion through the extracellular matrix is another indicator of angiogenesis. Collagen I matrices containing 1 uM of hS2pep and scr were prepared in an […] transwell. 50,000 murine skin ECs were seeded and cells which had passed through the matrix were counted after 24 hours.
Invasion assay: Invasion assays through collagen and Matrigel matrices were performed in 24-well plates with transwell inserts (Millipore; 8 μm pore size, polyester (PET) membrane). […] Invasion was measured after 6 hours after which time gels were removed with a cotton swab, the filter washed in PBS and stained with calcein (Invitrogen) and the number of cells attached to the filter was counted.

The test system of assay [3] is Matrigel plugs. Description: Matrigel plug assay (haemoglobin content). The format is in vivo, mouse. As to conditions: 50 μM incorporated in plug; C57BL6 mice; vs scrambled peptide control or PBS. As to the method:
Mice were sacrificed after three days and the plugs excised, photographed and incubated overnight in PBS. Haemoglobin was quantified using Drabkin's reagent (Sigma) as described by the manufacturer. All experiments were performed under the UK legislation for the protection of animals, and at the end of all in vivo procedures involving anaesthesia, animals were humanely killed by cervical dislocation in accordance with UK Home Office regulations. Excised plugs were frozen in liquid nitrogen and subsequently embedded in ice cold OCT, 15 μm sections were made using a cryostat at −20° C. Following fixation with 4% PFA for 5 min and blocking with 10% Normal Goat Serum for 15 min, sections were stained for nuclei (DRAQ5) and the EC marker CD31 overnight. Images were captured using a PASCAL laser-scanning confocal microscope (Carl Zeiss, 10× objective). Quantification was performed using the IMARIS software and Photoshop (Adobe), ECs were identified by co-localization of nuclei with CD31 staining.
Data is from 2 plugs per animal and is the mean of two measurements.

Assay [4] has as its system HUVECs. Description: Capillary network (tubule) formation of HUVECs on growth factor depleted Matrigel. Type of assay: cell-based, human. The note with it: 1 μm, FIG. 3B. The method, then: 80,000 HUVECs were seeded into 24 well plates coated with 100 μl/well of growth factor depleted Matrigel (BD Sciences) in the presence of the human syndecan-2 peptides scr or hS2pep at the concentrations indicated (scr corresponds to a scrambled control peptide). Tubule formation was monitored by time lapse microscopy using an Olympus IX81 microscope with a controlled environment chamber set at 37° C., 10% CO2. Images were captured every 30 minutes using a Hamamatsu Orca ER digital camera and processed using Cell^M software (Olympus). (A) Phase contrast images of tubules after 6 hours in culture. (B) Branch points were counted on at least four representative images. A branch point is defined at which two or more tubules meet.
To investigate the inhibitory effect of peptides derived from human syndecan-2, 80,000 HUVECs were seeded into 24 well plates coated with 100 ul/well of growth factor depleted Matrigel in the presence of scr or hS2pep. Tubule formation was monitored by time lapse microscopy (FIG. 3A).

In assay [5] the test system is HUVECs. Description: Scratch wound cell migration assay on HUVEC monolayers. The format is cell-based, human. As to the method: In this assay scratches are made in confluent monolayers of HUVECS and the cells incubated in the presence or absence of different concentrations of the human syndecan-2 peptides. Cell migration is measured by time lapse microscopy using an Olympus IX81 microscope with a controlled environment chamber set at 37° C., 10% CO2. Images were captured every 30 minutes using a Hamamatsu Orca ER digital camera and processed using Cell^M software (Olympus). […]
In one assay, scratches were made in confluent monolayers of HUVECs and the cells incubated in the presence or absence of different concentrations of hS2pep (human syndecan-2 peptide) and scrambled peptides (FIG. 1A).
Scratch wound migration assays: Scratch wound migration assays were performed on confluent monolayers of ECs. Wounds were made using a pipette tip, and fusion proteins were added to the medium and images were captured every 30 minutes for 12 hours by time lapse microscopy using an Olympus IX81 microscope. Percentage wound closure was calculated and individual cells tracked using Image J.

In assay [6] the test system is murine aortic ring. Description: Mouse aortic ring model of angiogenic sprout formation. Type of assay: cell-based. As to conditions: 0.5 μM in medium; sprouts counted after 7 days; murine aortic rings. The method, then: Aortic ring assay: Thoracic aortas dissected from cervically dislocated 180-200 g male wistar rats (Harlan Laboratories) or 6 week old C57BL/6 mice (Charles River) were sliced into 0.5 mm sections and incubated overnight in serum free OptiMEM (Invitrogen) at 37° C. Aortic rings were embedded in type I collagen (1 mg/ml) in E4 media (Invitrogen) containing either GST, syndecan-2 mutant proteins or peritoneal exudates in 48 well plates. Wells were supplemented with OptiMEM with 1% FBS and 10 ng/ml VEGF (R and D systems, 30 ng/ml for murine rings) and incubated at 37° C., 10% CO2. Angiogenic sprouts from rat and mouse aortas were counted after 4 days and 8 days respectively (Method based on that of Nicosia and Ottinetti (Laboratory Investigation 63:115-122, 1990) and modified in De Rossi et al. (Journal of Genetic Syndromes & Gene Therapy 4, 2013).
The peptide was added to the medium and sprouts were counted after 7 days in culture. Data represents the mean of at least 15 rings and error bars represent the SEM. Significance is indicated on the basis of a non-paired students t test (p***<0.001).

Assay [7] relates to Choroid explants. Description: Choroid explant model of angiogenic sprout formation. Type of assay: cell-based, mouse. The note with it: doses 0.1 μM to 1 μM, counted after 7 days. The method, then:
18 day old C57BL6 mice were sacrificed by cervical dislocation and eyes were enucleated prior to an incision being made 1 mm below the iris and removal of the iris, cornea lens and retina. The choroid is then removed flattened and cut into 1 mm pieces prior to incubation in serum free OptiMEM o/n at 37° C. Choroid explants are then embedded in a Collagen I matrix containing scrambled or experimental peptides and supplemented with OptiMEM containing 10 ng/ml murine VEGFA. Angiogenic sprouts were counted after 7 days.
The choroid is a vascular bed beneath the retinal pigment epithelium and supplies oxygen and nutrients to the outer retina. The choroid can be readily isolated from the murine eye and when placed in a suitable medium and after 4-6 days in culture vessel sprouting occurs and can be quantified. This assay recapitulates Choroidal neovascularisation, the cause of central vision loss in wet Age Related Macular Degeneration. […] Data is the mean number of sprouts from at least 6 Choroid explants from a total of 8 animals. Error bars represent the SEM and significance was calculated using a students t test p<0.05.

Turning to “hS2pep: Peptide derived from human syndecan-2 (SEQ ID NO 6); development name QM107 (PAEEDTNVYTEKHSDSLF; hS2pep peptide derived from human syndecan-2)”, in assay [1], the “Reduction of choroidal neovascularisation (area) compared to PBS or scrambled control” value was “around 30%”. Also, the “Invasion through collagen I” value in assay [2] is recorded as “inhibited”. In assay [3], the “Haemoglobin content of Matrigel plugs” value is reported as “greatly reduced”. Besides, the “Capillary network formation (number of branch points)” value in assay [4] was “inhibited”. Besides, the Scratch wound closure result in assay [5] (1 uM, HUVECs, FIG. 1B) was “greatly reduced”. In assay [5] (after 4 hours in culture, vs scrambled peptide), the HUVEC cell migration entry is “significantly inhibited”. In assay [6], the Angiogenic sprout formation result is listed as “inhibited”. Moreover, the “Formation of angiogenic sprouts” value in assay [7] is “inhibit the formation of angiogenic sprouts”.

The values are drawn from patent US10766942B2, “Fragments of syndecan-2 having anti-angiogenic activity” (Queen Mary University of London, priority 2014, dated 2020).
